Assay results taken from the NIST ThermoML archive (doi:10.1016/j.tca.2015.02.014).
Numbers after ± are expanded uncertainties.

Tests used:
[1] = mn = molality of the nth substance listed, in mol/kg; details: 100 kPa, Liquid; for viscosity: Capillary tube (Ostwald / Ubbelohde) method; for speed of sound: Frequency=3 MHz, Sing-around technique in a fixed-path interferometer; for mass density: Vibrating tube method
[2] = 100 kPa, Liquid, Capillary tube (Ostwald / Ubbelohde) method

SMILES	viscosity ([1]; 293.15 K, m1 = 0.1)	speed of sound ([1]; 293.15 K, m1 = 0.1)	mass density ([1]; 293.15 K, m1 = 0.1)	viscosity ([1]; 298.15 K, m1 = 0.1)	speed of sound ([1]; 298.15 K, m1 = 0.1)	mass density ([1]; 298.15 K, m1 = 0.1)	viscosity ([1]; 303.15 K, m1 = 0.1)	speed of sound ([1]; 303.15 K, m1 = 0.1)	viscosity ([1]; 308.15 K, m1 = 0.1)	speed of sound ([1]; 308.15 K, m1 = 0.1)	viscosity ([1]; 313.15 K, m1 = 0.1)	speed of sound ([1]; 313.15 K, m1 = 0.1)	mass density ([1]; 313.15 K, m1 = 0.1)	viscosity ([1]; 318.15 K, m1 = 0.1)	speed of sound ([1]; 318.15 K, m1 = 0.1)	mass density ([1]; 303.15 K, m1 = 0.1)	mass density ([1]; 308.15 K, m1 = 0.1)	mass density ([1]; 318.15 K, m1 = 0.1)	also measured
NCC(=O)O [2-aminoacetic acid] + O	1.016 ± 0.022 mPa·s	1488.2 ± 1.7 m/s	1001.51 ± 0.27 kg/m3	0.9031 ± 0.022 mPa·s	1502.2 ± 1.7 m/s	1000.32 ± 0.27 kg/m3	0.808 ± 0.021 mPa·s	1514.4 ± 1.7 m/s	0.7271 ± 0.021 mPa·s	1525 ± 1.7 m/s	0.6645 ± 0.021 mPa·s	1533.9 ± 1.7 m/s	995.401 ± 0.28 kg/m3	0.5988 ± 0.021 mPa·s	1541.3 ± 1.6 m/s	–	–	–	–
O [water]	–	–	–	–	–	–	–	–	–	–	–	–	–	–	–	–	–	–	viscosity ([2]; 293.15 K): 1.002 ± 0.021 mPa·s; viscosity ([2]; 298.15 K): 0.8903 ± 0.021 mPa·s; viscosity ([2]; 303.15 K): 0.7973 ± 0.021 mPa·s; viscosity ([2]; 308.15 K): 0.719 ± 0.021 mPa·s; viscosity ([2]; 313.15 K): 0.6526 ± 0.021 mPa·s; viscosity ([2]; 318.15 K): 0.596 ± 0.021 mPa·s
O [water] + C[C@H](CCC(=O)[O-])[C@H]1CC[C@H]2[C@@H]3[C@H](O)C[C@@H]4C[C@H](O)CC[C@]4(C)[C@H]3C[C@H](O)[C@]12C.[Na+]	–	–	–	–	–	–	–	–	–	–	–	–	–	–	–	–	–	–	viscosity ([1]; 293.15 K, m2 = 0): 1.002 ± 0.021 mPa·s; viscosity ([1]; 298.15 K, m2 = 0): 0.8903 ± 0.021 mPa·s; viscosity ([1]; 303.15 K, m2 = 0): 0.7973 ± 0.021 mPa·s; viscosity ([1]; 308.15 K, m2 = 0): 0.719 ± 0.021 mPa·s; viscosity ([1]; 313.15 K, m2 = 0): 0.6526 ± 0.021 mPa·s; speed of sound ([1]; 313.15 K, m2 = 0): 1529.2 ± 1.3 m/s; viscosity ([1]; 318.15 K, m2 = 0): 0.596 ± 0.021 mPa·s; speed of sound ([1]; 318.15 K, m2 = 0): 1536.5 ± 1.3 m/s; mass density ([1]; 318.15 K, m2 = 0): 990.256 ± 0.14 kg/m3
O [water] + C[C@H](CCC(=O)[O-])[C@H]1CC[C@H]2[C@@H]3CC[C@@H]4C[C@H](O)CC[C@]4(C)[C@H]3C[C@H](O)[C@]12C.[Na+]	–	–	–	–	–	–	–	–	–	–	–	–	–	–	–	–	–	–	viscosity ([1]; 293.15 K, m2 = 0): 1.002 ± 0.021 mPa·s; viscosity ([1]; 298.15 K, m2 = 0): 0.8903 ± 0.021 mPa·s; viscosity ([1]; 303.15 K, m2 = 0): 0.7973 ± 0.021 mPa·s; viscosity ([1]; 308.15 K, m2 = 0): 0.719 ± 0.021 mPa·s; viscosity ([1]; 313.15 K, m2 = 0): 0.6526 ± 0.021 mPa·s; speed of sound ([1]; 313.15 K, m2 = 0): 1529.2 ± 1.3 m/s; viscosity ([1]; 318.15 K, m2 = 0): 0.596 ± 0.021 mPa·s; speed of sound ([1]; 318.15 K, m2 = 0): 1536.5 ± 1.3 m/s; mass density ([1]; 318.15 K, m2 = 0): 990.256 ± 0.15 kg/m3
CC(C)C[C@H](N)C(=O)O [L-leucine] + O	1.06 ± 0.022 mPa·s	1494.9 ± 1.7 m/s	1000.79 ± 0.27 kg/m3	0.9398 ± 0.022 mPa·s	1508.3 ± 1.7 m/s	999.575 ± 0.27 kg/m3	0.8362 ± 0.022 mPa·s	1520.2 ± 1.7 m/s	0.7509 ± 0.021 mPa·s	1530.3 ± 1.7 m/s	0.6801 ± 0.021 mPa·s	1538.8 ± 1.7 m/s	994.559 ± 0.29 kg/m3	0.6014 ± 0.021 mPa·s	1545.9 ± 1.6 m/s	998.115 ± 0.28 kg/m3	996.485 ± 0.28 kg/m3	992.305 ± 0.28 kg/m3	–
N[C@@H](Cc1c[nH]cn1)C(=O)O [L-histidine] + O	1.052 ± 0.022 mPa·s	1491.8 ± 1.7 m/s	1003.99 ± 0.27 kg/m3	0.928 ± 0.022 mPa·s	1505.3 ± 1.7 m/s	1002.8 ± 0.28 kg/m3	0.8289 ± 0.021 mPa·s	1517.4 ± 1.7 m/s	0.7447 ± 0.021 mPa·s	1527.6 ± 1.7 m/s	0.6783 ± 0.021 mPa·s	1536.3 ± 1.7 m/s	997.795 ± 0.28 kg/m3	0.5915 ± 0.021 mPa·s	1543.8 ± 1.6 m/s	1001.33 ± 0.28 kg/m3	999.656 ± 0.28 kg/m3	995.765 ± 0.27 kg/m3	–
CSCC[C@H](N)C(=O)O [L-methionine] + O	1.034 ± 0.023 mPa·s	1493 ± 1.9 m/s	1002.78 ± 0.43 kg/m3	0.92 ± 0.022 mPa·s	1506.7 ± 2 m/s	1001.58 ± 0.43 kg/m3	0.8289 ± 0.022 mPa·s	1518.5 ± 1.9 m/s	0.7461 ± 0.021 mPa·s	1528.7 ± 1.9 m/s	0.6799 ± 0.021 mPa·s	1537 ± 1.9 m/s	996.591 ± 0.43 kg/m3	0.6105 ± 0.021 mPa·s	1544.2 ± 1.9 m/s	1000.16 ± 0.44 kg/m3	998.461 ± 0.43 kg/m3	994.572 ± 0.43 kg/m3	–
